Test results taken from ChEMBL document CHEMBL3885861, “Open TG-GATES”.

Species on record: Rattus norvegicus
Assay: Open TG-GATES - Regimen: Single
Type: toxicity, organism-based, Sprague-Dawley
Set-up: regimen Single, gender Male, age 6 weeks
Settings: in vivo, po, route gavage; for APTT / Bas / Eos / Fbg / Hb / Ht / Lym / MCH / MCHC / Mono / Neu / PT / Plat / RBC / Ret / WBC / MCV: tissue Blood; for KIDNEY_L / KIDNEY_R / KIDNEY_TOTAL: tissue Kidney; for LIVER: tissue Liver; for ALP / ALT / AST / BUN / CRE / Ca / Cl / DBIL / GLC / IP / K / LDH / Na / PL / RALB / TBIL / TC / TG / TP / gamma-GTP: tissue Plasma
[1] = 0 mg/kg, 3 h, dose level Control
[2] = 0 mg/kg, 6 h, dose level Control
[3] = 0 mg/kg, 9 h, dose level Control
[4] = 0 mg/kg, 24 h, dose level Control
[5] = 300 mg/kg, 24 h, dose level Low

## CCOc1ccc(NC(C)=O)cc1 [PHENACETIN]
[1]
  TERMINAL_BW: 210.2 g
  APTT: 17.4 s
  Bas: 0%
  Eos: 0.6%
  Fbg: 292 mg/dL
  Hb: 13.3 g/dL
  Ht: 40.2%
  Lym: 78.2%
  MCH: 20.7 pg
  MCHC: 33%
  Mono: 3%
  Neu: 17.8%
  PT: 13.7 s
  Plat: 114.8 x10_4/uL
  RBC: 641.4 x10_4/ul
  Ret: 8.1%
  WBC: 96.3 x10_2/uL
  KIDNEY_L: 0.9 g
  KIDNEY_R: 0.9 g
  KIDNEY_TOTAL: 1.8 g
  LIVER: 9.1 g
  ALP: 1765 IU/L
  ALT: 39.6 IU/L
  AST: 74.4 IU/L
  BUN: 11.6 mg/dL
  CRE: 0.2 mg/dL
  Ca: 11.1 mg/dL
  Cl: 105.4 meq/L
  DBIL: 0 mg/dL
  GLC: 169 mg/dL
  IP: 8.8 mg/dL
  K: 4.2 meq/L
  LDH: 115.4 IU/L
  Na: 142.2 meq/L
  PL: 153.4 mg/dL
  RALB: 2.5 g/dL
  TBIL: 0.05 mg/dL
  TC: 87.8 mg/dL
  TG: 53.2 mg/dL
  TP: 5.4 g/dL
  gamma-GTP: 1.8 IU/L
[2]
  TERMINAL_BW: 211 g
  APTT: 18.2 s
  Bas: 0.4%
  Eos: 1%
  Fbg: 290.8 mg/dL
  Hb: 13.6 g/dL
  Ht: 40.8%
  Lym: 76.2%
  MCH: 20.7 pg
  MCHC: 33.4%
  MCV: 62.2 fL
  Mono: 2.6%
  Neu: 19.4%
  PT: 14.1 s
  Plat: 119.9 x10_4/uL
  RBC: 656.6 x10_4/ul
  Ret: 7.6%
  WBC: 104.2 x10_2/uL
  KIDNEY_L: 0.9 g
  KIDNEY_R: 1 g
  KIDNEY_TOTAL: 1.9 g
  LIVER: 8.7 g
  ALP: 1471.4 IU/L
  AST: 74.4 IU/L
  BUN: 9.6 mg/dL
  CRE: 0.2 mg/dL
  Ca: 11 mg/dL
  Cl: 106 meq/L
  DBIL: 0 mg/dL
  GLC: 171.6 mg/dL
  IP: 9.3 mg/dL
  K: 4.1 meq/L
  LDH: 73.8 IU/L
  Na: 144 meq/L
  PL: 142 mg/dL
  RALB: 2.5 g/dL
  TBIL: 0.052 mg/dL
  TC: 78.8 mg/dL
  TG: 50 mg/dL
  TP: 5.4 g/dL
  gamma-GTP: 1.4 IU/L
[3]
  TERMINAL_BW: 210.5 g
  APTT: 17.7 s
  Bas: 0.2%
  Eos: 0.8%
  Fbg: 302.8 mg/dL
  Hb: 13.2 g/dL
  Ht: 39.7%
  Lym: 77.4%
  MCH: 21.6 pg
  MCHC: 33.3%
  MCV: 64.9 fL
  Mono: 2.6%
  PT: 13.7 s
  Plat: 116.6 x10_4/uL
  RBC: 611.4 x10_4/ul
  Ret: 8.6%
  WBC: 81.1 x10_2/uL
  KIDNEY_L: 0.9 g
  KIDNEY_R: 0.9 g
  KIDNEY_TOTAL: 1.9 g
  LIVER: 8.4 g
  ALP: 1519.6 IU/L
  ALT: 36.8 IU/L
  AST: 75.4 IU/L
  BUN: 9.2 mg/dL
  CRE: 0.2 mg/dL
  Ca: 10.9 mg/dL
  DBIL: 0.002 mg/dL
  GLC: 163.6 mg/dL
  IP: 9.8 mg/dL
  K: 4 meq/L
  LDH: 75.8 IU/L
  Na: 143.4 meq/L
  PL: 145.6 mg/dL
  RALB: 2.5 g/dL
  TBIL: 0.066 mg/dL
  TC: 81.6 mg/dL
  TG: 44.2 mg/dL
  TP: 5.4 g/dL
  gamma-GTP: 1.2 IU/L
[4]
  TERMINAL_BW: 226.9 g
  APTT: 17.2 s
  Bas: 0%
  Eos: 1%
  Fbg: 296.2 mg/dL
  Hb: 13.3 g/dL
  Ht: 40.1%
  Lym: 82.4%
  MCH: 21.1 pg
  MCHC: 33%
  MCV: 63.7 fL
  Mono: 2.2%
  Neu: 13.6%
  PT: 13.6 s
  Plat: 120.9 x10_4/uL
  RBC: 630.4 x10_4/ul
  Ret: 7.8%
  WBC: 100.3 x10_2/uL
  KIDNEY_L: 1 g
  KIDNEY_R: 1 g
  KIDNEY_TOTAL: 1.9 g
  LIVER: 10.7 g
  ALP: 1883.2 IU/L
  ALT: 37.2 IU/L
  AST: 66.2 IU/L
  BUN: 15.2 mg/dL
  CRE: 0.2 mg/dL
  Ca: 11.1 mg/dL
  Cl: 104.4 meq/L
  DBIL: 0.008 mg/dL
  GLC: 179 mg/dL
  IP: 7.9 mg/dL
  K: 4.2 meq/L
  LDH: 106.8 IU/L
  PL: 161.8 mg/dL
  RALB: 2.6 g/dL
  TBIL: 0.038 mg/dL
  TC: 81.8 mg/dL
  TG: 122.2 mg/dL
  TP: 5.7 g/dL
  gamma-GTP: 1 IU/L
300 mg/kg, 3 h, dose level Low
  TERMINAL_BW: 214.8 g
  APTT: 17.3 s
  Bas: 0.4%
  Eos: 1%
  Hb: 14.3 g/dL
  Ht: 42.8%
  Lym: 73.2%
  MCH: 20.6 pg
  MCHC: 33.3%
  MCV: 62.2 fL
  Mono: 2.6%
  Neu: 22.8%
  PT: 14 s
  Plat: 134.5 x10_4/uL
  RBC: 689.2 x10_4/ul
  Ret: 8.6%
  WBC: 59.5 x10_2/uL
  KIDNEY_L: 1 g
  KIDNEY_R: 1 g
  KIDNEY_TOTAL: 1.9 g
  LIVER: 9.3 g
  ALP: 1454.6 IU/L
  ALT: 38.2 IU/L
  AST: 72 IU/L
  BUN: 8.4 mg/dL
  CRE: 0.2 mg/dL
  Ca: 10.9 mg/dL
  Cl: 101 meq/L
  DBIL: 0 mg/dL
  GLC: 206.6 mg/dL
  IP: 11.3 mg/dL
  K: 3.7 meq/L
  LDH: 77.4 IU/L
  Na: 141.6 meq/L
  PL: 152.4 mg/dL
  RALB: 2.6 g/dL
  TBIL: 0.034 mg/dL
  TC: 83.2 mg/dL
  TG: 78.2 mg/dL
  TP: 5.7 g/dL
  gamma-GTP: 1.4 IU/L
300 mg/kg, 6 h, dose level Low
  TERMINAL_BW: 205.3 g
  APTT: 16.7 s
  Bas: 0%
  Eos: 0.2%
  Fbg: 332.4 mg/dL
  Ht: 43.8%
  Lym: 74%
  MCH: 21.2 pg
  MCHC: 33.7%
  MCV: 62.9 fL
  Mono: 2.4%
  PT: 14.2 s
  Plat: 124.8 x10_4/uL
  RBC: 696 x10_4/ul
  Ret: 8.3%
  WBC: 66.9 x10_2/uL
  KIDNEY_L: 1 g
  KIDNEY_R: 0.9 g
  KIDNEY_TOTAL: 1.9 g
  LIVER: 9.1 g
  ALP: 1428.2 IU/L
  ALT: 39 IU/L
  AST: 71.2 IU/L
  BUN: 9.6 mg/dL
  CRE: 0.1 mg/dL
  Ca: 11.1 mg/dL
  Cl: 101.2 meq/L
  DBIL: 0 mg/dL
  GLC: 198.4 mg/dL
  IP: 10.1 mg/dL
  K: 3.7 meq/L
  LDH: 80.4 IU/L
  Na: 140.4 meq/L
  PL: 152.6 mg/dL
  RALB: 2.7 g/dL
  TBIL: 0.046 mg/dL
  TC: 94.2 mg/dL
  TG: 35.6 mg/dL
  TP: 5.8 g/dL
  gamma-GTP: 1 IU/L
300 mg/kg, 9 h, dose level Low
  TERMINAL_BW: 204.1 g
  APTT: 17.8 s
  Bas: 0%
  Eos: 0.6%
  Fbg: 313.2 mg/dL
  Hb: 14.4 g/dL
  Ht: 42.3%
  Lym: 72.2%
  MCH: 21 pg
  MCV: 61.6 fL
  Mono: 4.2%
  Neu: 22.2%
  PT: 13.9 s
  Plat: 119.6 x10_4/uL
  RBC: 686.6 x10_4/ul
  Ret: 8.4%
  WBC: 60.7 x10_2/uL
  KIDNEY_L: 0.9 g
  KIDNEY_R: 0.9 g
  KIDNEY_TOTAL: 1.8 g
  LIVER: 8.5 g
  ALP: 1326.6 IU/L
  ALT: 33.4 IU/L
  AST: 65.4 IU/L
  BUN: 11.6 mg/dL
  CRE: 0.2 mg/dL
  Ca: 11.1 mg/dL
  Cl: 99 meq/L
  DBIL: 0.008 mg/dL
  GLC: 210.8 mg/dL
  IP: 8.8 mg/dL
  K: 4 meq/L
  LDH: 93 IU/L
  Na: 139 meq/L
  PL: 163.2 mg/dL
  RALB: 2.7 g/dL
  TBIL: 0.062 mg/dL
  TC: 94.8 mg/dL
  TG: 50.6 mg/dL
  TP: 5.8 g/dL
  gamma-GTP: 1.4 IU/L
[5]
  TERMINAL_BW: 210.4 g
  APTT: 16.7 s
  Bas: 0%
  Eos: 1%
  Fbg: 297.4 mg/dL
  Hb: 13.9 g/dL
  Ht: 41.5%
  Lym: 77.4%
  MCH: 20.7 pg
  MCHC: 33.4%
  MCV: 62.2 fL
  Mono: 2.6%
  Neu: 18.6%
  PT: 14.1 s
  Plat: 126.5 x10_4/uL
  RBC: 668.8 x10_4/ul
  Ret: 7.5%
  WBC: 86.4 x10_2/uL
  KIDNEY_L: 1 g
  KIDNEY_R: 1 g
  KIDNEY_TOTAL: 1.9 g
  LIVER: 9.2 g
  ALP: 1966 IU/L
  ALT: 44.4 IU/L
  AST: 83 IU/L
  BUN: 14.4 mg/dL
  CRE: 0.2 mg/dL
  Ca: 11.1 mg/dL
  Cl: 105 meq/L
  DBIL: 0.01 mg/dL
  GLC: 168.6 mg/dL
  IP: 7.7 mg/dL
  K: 4.4 meq/L
  LDH: 149.6 IU/L
  Na: 144 meq/L
  PL: 166 mg/dL
  RALB: 2.6 g/dL
  TBIL: 0.05 mg/dL
  TC: 87.8 mg/dL
  TG: 84.4 mg/dL
